Marks after values point to notes of the source that are not given here.
What was measured:
[1] = test system: Staphylococcus aureus (ATCC 10832); assay: Antibacterial studies, dead/live assay by flow cytometry (SYTO21 / propidium iodide); assay type: cell-based; settings: visible light substituted with UV light
[2] = UV-Visible absorption spectra; assay type: physicochemical; settings: for λmax (absorption): MeOH; for λmax (Absorption/nm): Water
Protocol: (§1) NMR spectra were recorded using a Varian VXR-300 FT-NMR, operating at 300 MHz for ^1H NMR and at 75.4 MHz for ^13C NMR. UV-Visible spectra were recorded using a Varian Cary 100 dual beam spectrophotometer. Corrected steady-state fluorescence spectra were obtained with a PTI spectrometer. A 1 cm square quartz cuvette was used for solution spectra, and emission was collected at 90° relative to excitation beam. Fluorescence quantum yields are reported relative to known standards. The optical density of solutions at the excitation wavelength was ≦0.1, and corrections were applied for differences in the refractive index of standard and sample solutions. Transient absorption spectra were collected using a laser systems that is described elsewhere.^17,18 The optical density of the solutions was adjusted to ˜0.7 at the excitation wavelength (355 nm) with the laser energy set at 6-7 mJ. Solutions were purged with argon for 45 min before making transient absorption spectroscopy measurements. Singlet oxygen quantum yields were measured using a Photon Technology International Quantamaster near-IR spectrophotometer equipped with an InGaAs photodiode detector, optical chopper and a lock in amplifier.

[3] = Transient absorption spectroscopy (triplet excited state); assay type: physicochemical; settings: for TTAbs (ΔA, t = 0): methanol, Abs=0.7 at λex, λex=355 nm for 4a and 4b, 425 nm for 4c, immediately following the laser pulse
Protocol: Transient absorption experiments were carried out both in methanol and in water (excitation at 355 nm, 5 ns pulse, […] fluence). […] The important photophysical data obtained in methanol solution are consolidated in Table 1 (see supporting information for data in aqueous solution). FIGS. 5 and 6 compare transient absorption difference spectra obtained immediately following the laser pulse in methanol. […] Pulse energy and ground state absorption matched. […] The response curves from each of the repetitive time increments is indicated by sequential numbers 1-8 in both FIGS. 6A and 6B. Samples were purged with argon for 45 min before the measurements. A higher life time is observed for the triplet excited state in water than in methanol.
as §1

[4] = Singlet oxygen quantum yield (sensitization, emission at 1260 nm); assay type: physicochemical; settings: CD3OD; 2′-acetonaphthone (ΦΔ = 0.79) as actinometer
Source text: The important and necessary feature of the biocidal agents triggered by light is their ability to sensitize the formation of singlet oxygen. Having established the formation of triplet state by direct excitation of the oligomers 4a and 4b (but not 4c), we determined their ability to sensitize singlet oxygen in deuterated methanol (ΦΔ, Table 1). […] From the above results it is evident that the oligomer with terthiophene back bone is the most efficient sensitizer for singlet oxygen.
as §1

Fluorescence lifetime = assay type: physicochemical; settings: component amplitude in brackets
[5] = test system: Staphylococcus aureus (ATCC 10832); assay: Antibacterial studies, dead/live assay by flow cytometry (SYTO21 / propidium iodide); assay type: cell-based; settings: for dark antibacterial activity / dark toxicity (in words) / light-dependent toxicity versus the bacterial cells (in words) / percentage of killed S. aureus cells: 1 μg/mL oligomer; for dark antibacterial activity / dark toxicity (in words) / light-dependent toxicity versus the bacterial cells (in words): up to 90 min
Source text: There has been an increasing interest in the prevention of staphylococcal infections because of the increasing number of infections caused by methicillin-resistant S. aureus (MRSA), which is the most common cause of hospital-acquired infections. Our previous studies with oligo (phenylene ethynylene) type oligomers have clearly established that these oligomers are effective against variety of bacteria in the presence of light. […] As our objective is to develop visible light activated biocidal oligomers, we investigated the antibacterial activity of compounds 4a-c and against Staphylococcus aureus (S. aureus). After oligomer solutions were incubated with S. aureus under visible light illumination or in the dark, the antibacterial effect of the three oligomers was evaluated at time 0, 15, 30, 45, 60, and 90 min by flow cytometry analysis after staining the bacterial suspensions with live/dead fluorescent dyes (SYTO21, green fluorescence=live, and propidium iodide, red fluorescence=dead). FIGS. 7 and 8 show plots of the percentage of dead bacteria cells versus light exposure time of the thiophene-based oligomeric series at […]. […] The antibacterial efficiency of three oligomers increases with increasing irradiation time. In the control sample where oligomers were not added to the bacterial suspension most cells (>90% as shown in flow cytometry data) were viable and appear green fluorescence. Dark antibacterial activity was not observed from 4a and 4b; however, 4c kills ˜27% of bacteria after 90 min of incubation of bacteria with 4c.
Staphylococcus aureus (ATCC 10832, American Type Culture Collection) was grown in Brain Heart Infusion (BHI, Difco) and stored at […] with 20% (v/v) glycerol (EMD) before use. Stock cultures maintained on agar plates (2%, Difco) were used to inoculate 50 mL cultures in liquid BHI. The cultures were incubated at 37° C. for 18 hours. The bacteria were then centrifuged and washed twice with 0.85% NaCl followed by counting in a hemocytometer to normalize bacterial concentration in 20 mL of 0.85% NaCl (8×10^6 cells/mL) for antibacterial tests. Control samples containing only bacterial cells, and desired concentrations of oligomer/bacteria mixture samples were exposed to the visible light for 15, 30, 45, 60 and 90 min in a LuzChem ORG photoreactor using Sylvania T5 bulbs (λ=350-799 nm). Another set of samples were incubated in the dark for 15, 30, 45, 60 and 90 min. Then dead/live assays were conducted using SYTO21 (green fluorescence=live) and propidium iodide (red fluorescence=dead) purchased from Invitrogen. After bacteria were incubated with the oligomers in the light and dark conditions, a 1:1 ratio of dyes (2.4 μL) were added to the samples and kept in the dark for 15 min. Finally, the bacteria were examined using an Accuri C6 flow cytometer where 2×10^4 cells were analyzed from 8×10^6 cell solution. The number of live cells and dead cells corresponding to green and red fluorescence respectively were counted and compared by flow cytometry. Results are shown graphically in FIGS. 7 and 8.

[6] = Steady-state fluorescence spectra and fluorescence quantum yields relative to known standards; assay type: physicochemical
Protocol: as §1

[7] = visible light, 90 min of irradiation
[8] = MeOH, quinine sulfate in 0.1M sulfuric acid (ΦF = 0.54) as actinometer
[9] = Water, quinine sulfate in 0.1M sulfuric acid (ΦF = 0.54) as actinometer

Structure (SMILES) | λmax (absorption) [2] [nm] | λmax (Absorption/nm) [2] [nm] | TTAbs (λ/nm)/MeOH [3] [nm] | TTAbs (λ/nm) in Water ([3]; Water) [nm] | TTAbs (ΔA, t = 0) [3] | ΦΔ (singlet oxygen quantum yield) [4] | dark antibacterial activity / dark toxicity (in words) ([5]; dark) | light-dependent toxicity versus the bacterial cells (in words) ([5]; visible light) | percentage of killed S. aureus cells [5, 7] | λmax (fluorescence) ([6]; MeOH) [nm] | ΦF (fluorescence quantum yield) [6, 8] | λmax (Fluorescence/nm) ([6]; Water) [nm] | ΦF (fluorescence quantum yield) [6, 9] | also measured
C[N+](C)(C)CCCc1ccc(-c2ccc(-c3ccc(CCC[N+](C)(C)C)s3)s2)s1.[Cl-].[Cl-] [4a] | 364 | 368 | 467 | 467 | 0.55 | 0.74 ± 0.02 | not observed | marked light-dependent toxicity | ~93% | 437 | 0.06 ± 0.02 | 437 | 0.058 ± 0.02 | light activated antibacterial activity under UV light (in words) [1]: the most efficient compound in killing bacteria in the presence of light; shift of absorption in water compared to methanol ([2]; red shift for 4a, blue shift for 4b and 4c): ~4 nm; TTAbs (ΔA, t = 0) in Water ([3]; Water): 0.43; τtriplet (μs) in Water ([3]; Water): 17.9 μs; τF/ns (MeOH) (Fluorescence lifetime; MeOH, 4a at 450 nm): 0.18 ns; τF/ns (Water) (Fluorescence lifetime; Water, 4a 450 nm, 4b 500 nm, 4c 600 nm): 0.19 ns; biocidal activity at higher concentrations (in words) ([5]; in the presence of light, 5 and 10 μg/mL): virtually eliminates the bacterial population within a few minutes; concentration at which the compound is an effective biocide ([5]; in the presence of light, within 30 minutes): ≥ 1 µg/mL
Cn1nc2c(-c3ccc(CCC[N+](C)(C)C)s3)ccc(-c3ccc(CCC[N+](C)(C)C)s3)c2n1.[Cl-].[Cl-] [4b] | 390 | 385 | 492 | 492 | 0.39 | 0.49 ± 0.03 | not observed | marked light-dependent toxicity | about 35% | 460 | 0.51 ± 0.02 | 460 | 0.340 ± 0.02 | 
C[N+](C)(C)CCCc1ccc(-c2ccc(-c3ccc(CCC[N+](C)(C)C)s3)c3nsnc23)s1.[Cl-].[Cl-] [4c] |  | 454 | 529 | 529 |  | no singlet oxygen emission was detected | significant dark toxicity | marked light-dependent toxicity | about 35% | 615 |  | 610 |  | percentage of killed S. aureus cells ([5]; dark, 90 min of incubation): ~27%; ΦF (fluorescence quantum yield) ([6]; MeOH, fluorescein in 0.1M NaOH (ΦF = 0.92) as actinometer): 0.23 ± 0.02^b
